pIC50: −log10 of the molar value.
Legend:
[1] = Pressure sensitivity assay (tabletting, XRPD); format: physicochemical; settings: pressure 200, 300 and 500 kg/cm^2, 3 min
[2] = DVS assay; format: physicochemical; settings: 80% RH, 25° C.
Procedure: A Surface Measurement Systems Dynamic Vapor Sorption Analyzer (model of DVS Resolution) was used with an N2 flow rate: 200 sccm, detection temperature: 25° C., equilibrium time range: 5 min to 360 min, RH gradient: 10% (50% RH to 90% RH, 90% RH to 0% RH to 90% RH), and 5% (90% RH to 95% RH, 95% RH to 90% RH) to obtain dynamic vapor sorption analysis pattern.

[3] = Grinding sensitivity assay (XRPD); format: physicochemical; settings: manual grinding in a mortar, 1 min
[4] = Stress testing (influencing factors), total impurity content; format: physicochemical
[5] = Stability test of crystal form C (influencing factor, accelerated, long-term); format: physicochemical
Source text: The conditions and methods for the stability test of crystal form C of Compound 1 are mainly based on the requirements of “9001 Guidelines for Stability Test of APIs and Pharmaceutical Preparations” of the fourth part general rules of the 2020 edition of the Chinese Pharmacopoeia, as shown in Table 4. [table]

[6] = Pharmacokinetic assay in rats, single gavage; format: in vivo; settings: rat, plasma, po, male SD rats, 10 mg/kg
Procedure: Medicament preparation: the control compound, crystal form M of Compound 1 and amorphous form of Compound 2 obtained in Example 1 were weighed and prepared into a 10 mg/mL of solution to be tested in a mixture of 10% of DMSO, 10% of Solutol and 80% of saline; crystal form C of Compound 1 was added into a mixture of 5% of solutol and 95% of 0.5% CMCNa to prepare a 10 mg/mL of solution to be tested.
Assay method: 15 male SD rats with weights: 150 g to 300 g were randomly divided into 5 groups of 3 rats each, and […] of the Example compound was administered by single gavage. The blood was collected through the orbital venous plexus at the designated time points (5 min, 15 min, 30 min, 1 h, 2 h, 4 h, 7 h and 24 h) respectively, and the plasma was separated and stored in a refrigerator at −80° C. for spare use. After precipitation of proteins from the above plasma samples by acetonitrile, the supernatant was extracted and mixed with water at 1:1, and 10 μL of which was taken for LC-MS/MS detection.

[7] = tested on: catalytic subunit of PI3K (α-subunit compared to β-subunit); settings: cited from earlier work
[8] = target: PI3Kγ (Homo sapiens, UniProt P48736); experiment: PI3Kγ kinase assay (ADP-Glo, luminescence); format: biochemical; settings: final ATP concentration 10 μM; read-out: IC50 of Compound PI3K γ
PI3Kγ, sequence (P48736 whole entry): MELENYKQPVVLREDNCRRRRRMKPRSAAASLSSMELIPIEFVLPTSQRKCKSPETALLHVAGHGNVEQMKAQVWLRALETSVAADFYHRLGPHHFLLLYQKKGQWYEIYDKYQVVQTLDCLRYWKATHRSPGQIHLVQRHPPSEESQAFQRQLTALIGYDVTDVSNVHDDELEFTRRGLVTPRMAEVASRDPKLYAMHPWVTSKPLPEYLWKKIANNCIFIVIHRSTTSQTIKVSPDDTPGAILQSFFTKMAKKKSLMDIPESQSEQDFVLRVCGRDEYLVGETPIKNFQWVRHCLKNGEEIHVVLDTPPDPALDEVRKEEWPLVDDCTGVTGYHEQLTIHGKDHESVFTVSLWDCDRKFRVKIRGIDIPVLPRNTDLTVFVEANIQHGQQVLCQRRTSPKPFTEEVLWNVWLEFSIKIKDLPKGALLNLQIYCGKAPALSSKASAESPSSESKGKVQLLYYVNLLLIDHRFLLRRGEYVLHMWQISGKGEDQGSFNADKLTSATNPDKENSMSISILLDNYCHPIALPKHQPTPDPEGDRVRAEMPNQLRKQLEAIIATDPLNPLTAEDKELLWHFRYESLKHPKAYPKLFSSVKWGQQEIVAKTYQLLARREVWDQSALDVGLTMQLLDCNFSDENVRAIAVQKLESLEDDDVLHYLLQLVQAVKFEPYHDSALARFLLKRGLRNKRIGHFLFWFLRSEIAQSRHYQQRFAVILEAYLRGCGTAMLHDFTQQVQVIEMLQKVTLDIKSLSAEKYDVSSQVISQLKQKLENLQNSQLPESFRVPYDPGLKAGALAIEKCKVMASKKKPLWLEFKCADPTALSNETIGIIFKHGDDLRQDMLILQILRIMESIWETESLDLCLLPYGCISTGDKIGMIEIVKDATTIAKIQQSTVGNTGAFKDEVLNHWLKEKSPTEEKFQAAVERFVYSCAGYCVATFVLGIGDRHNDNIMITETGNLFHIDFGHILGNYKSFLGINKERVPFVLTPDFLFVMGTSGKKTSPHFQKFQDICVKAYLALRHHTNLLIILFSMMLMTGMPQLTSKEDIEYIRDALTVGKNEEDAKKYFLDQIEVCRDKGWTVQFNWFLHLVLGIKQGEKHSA
Procedure: (§1) PI3Kα, PI3Kβ, PI3Kγ kinases were enzymatically reacted with their substrates ATP and PIP2:3PS, and the amount of the reaction products were determined to reflect the enzymatic activities of PI3Kα, PI3Kβ, PI3Kγ using ADP-Glo reagent and luminescence method (final ATP concentration of 10 μM). The inhibitory activities of Compound 1 of the present invention on PI3Kα, PI3Kβ and PI3Kγ kinases were tested using the above method.
(§2) Reagents: basic kinase buffer (pH 7.5); PI3Kα, PI3Kβ, PI3Kγ enzyme solutions; solution of PIP2:3PS and ATP; and ADP-Glo kit (containing 10 mM of MgCl2).
(§3) Among them, the buffer components are: 50 mM of Hepes (pH 7.2 to pH 7.5), 3 mM of MgCl2, 1 mM of EGTA, 0.03% of CHAPS, 100 mM of NaCl, and 2 mM of DTT;
(§4) Preparation of compound: Compound 1 of the present application was completely dissolved in DMSO and diluted to a specific concentration so that the final concentration of the compound in the incubation system was 1000 nM, 333 nM, 111 nM, 37 nM, 12.4 nM, 4.1 nM, 1.4 nM, 0.46 nM, 0.15 nM and 0.05 nM (PI3Kα); 30,000 nM, 10,000 nM, 3333 nM, 1111 nM, 370 nM, 123 nM, 41 nM, 13.7 nM, 4.6 nM and 1.5 nM (PI3Kβ, PI3Kγ). […]

[9] = tested on: MCF-7 cells; experiment: Cell proliferation assay (CellTiter Glo), MCF-7; format: cell-based; settings: Homo sapiens, MCF7; 120 h incubation; read-out: IC50 of compounds on MCF-7 cells
Procedure: Method: CellTiter Glo assay method was used to observe the growth inhibitory effect of Compound 1 of the present application on human tumor cells MCF-7 and HGC-27 cultured in vitro.
Assay method: MCF-7 cells were suspended in DMEM medium to form a cell suspension, and the cell concentration was adjusted to 25,000 cells/mL. HGC-27 cells were suspended in RPMI-1640 medium to form a cell suspension, and the cell concentration was adjusted to 5,000 cells/mL. 100 μL of cell suspension was added to a 96-well plate and placed in a CO2 incubator overnight. Compound 1 was completely dissolved in DMSO and 3-fold gradient dilution was performed to obtain a total of 10 concentrations. The 10 concentrations of the compounds to be tested or the DMSO negative control were transferred to the wells containing 100 μL of medium to give final concentrations of the compounds of 30,000 nM, 10,000 nM, 3,333 nM, 1,111 nM, 370 nM, 123 nM, 41 nM, 13.7 nM, and 4.6 nM, respectively. Incubation was performed at 37° C. under 5% CO2 for 96 h for HGC-27 cells and 120 h for MCF-7 cells. Then 100 μL of CellTiter-Glo reagent was added to the above 96-well plate and placed at room temperature for 10 min to stabilize the luminescence signal. The RLU (relative luminescence unit) value was recorded using a VICTOR™ X5 instrument, and then the IC50 value was calculated. […]

[10] = target: PI3Kα (Homo sapiens, UniProt P42336); experiment: PI3Kα kinase assay (ADP-Glo, luminescence); format: biochemical; settings: final ATP concentration 10 μM; read-out: IC50 of Compound PI3K α
PI3Kα, sequence (P42336 whole entry): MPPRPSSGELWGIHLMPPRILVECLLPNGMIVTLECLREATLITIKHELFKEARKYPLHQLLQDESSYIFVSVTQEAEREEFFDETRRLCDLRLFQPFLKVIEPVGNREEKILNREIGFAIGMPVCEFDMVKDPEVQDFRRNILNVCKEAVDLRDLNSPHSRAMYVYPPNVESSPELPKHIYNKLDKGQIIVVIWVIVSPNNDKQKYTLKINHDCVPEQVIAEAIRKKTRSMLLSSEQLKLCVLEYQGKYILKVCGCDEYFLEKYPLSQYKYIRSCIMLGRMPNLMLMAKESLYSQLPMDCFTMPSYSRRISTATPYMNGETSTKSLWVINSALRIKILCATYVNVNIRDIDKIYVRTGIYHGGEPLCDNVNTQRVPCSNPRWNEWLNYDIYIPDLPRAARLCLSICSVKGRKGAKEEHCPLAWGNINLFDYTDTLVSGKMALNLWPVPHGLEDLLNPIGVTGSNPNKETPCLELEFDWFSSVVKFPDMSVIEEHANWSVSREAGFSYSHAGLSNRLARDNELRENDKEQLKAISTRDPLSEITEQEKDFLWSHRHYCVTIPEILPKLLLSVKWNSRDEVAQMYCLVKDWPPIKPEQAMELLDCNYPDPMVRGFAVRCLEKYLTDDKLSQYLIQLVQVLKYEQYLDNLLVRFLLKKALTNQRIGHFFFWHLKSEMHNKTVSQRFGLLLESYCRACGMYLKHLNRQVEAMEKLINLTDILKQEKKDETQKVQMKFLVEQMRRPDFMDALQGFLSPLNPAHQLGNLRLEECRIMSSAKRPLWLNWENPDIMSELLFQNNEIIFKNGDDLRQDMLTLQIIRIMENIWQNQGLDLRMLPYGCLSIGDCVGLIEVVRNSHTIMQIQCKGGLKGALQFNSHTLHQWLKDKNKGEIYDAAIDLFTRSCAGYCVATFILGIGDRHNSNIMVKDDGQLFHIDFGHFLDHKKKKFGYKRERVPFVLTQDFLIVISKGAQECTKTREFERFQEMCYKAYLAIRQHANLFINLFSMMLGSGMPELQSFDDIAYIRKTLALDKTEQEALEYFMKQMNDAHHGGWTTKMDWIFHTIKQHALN
PI3Kα, sequence (P27986 whole entry partner): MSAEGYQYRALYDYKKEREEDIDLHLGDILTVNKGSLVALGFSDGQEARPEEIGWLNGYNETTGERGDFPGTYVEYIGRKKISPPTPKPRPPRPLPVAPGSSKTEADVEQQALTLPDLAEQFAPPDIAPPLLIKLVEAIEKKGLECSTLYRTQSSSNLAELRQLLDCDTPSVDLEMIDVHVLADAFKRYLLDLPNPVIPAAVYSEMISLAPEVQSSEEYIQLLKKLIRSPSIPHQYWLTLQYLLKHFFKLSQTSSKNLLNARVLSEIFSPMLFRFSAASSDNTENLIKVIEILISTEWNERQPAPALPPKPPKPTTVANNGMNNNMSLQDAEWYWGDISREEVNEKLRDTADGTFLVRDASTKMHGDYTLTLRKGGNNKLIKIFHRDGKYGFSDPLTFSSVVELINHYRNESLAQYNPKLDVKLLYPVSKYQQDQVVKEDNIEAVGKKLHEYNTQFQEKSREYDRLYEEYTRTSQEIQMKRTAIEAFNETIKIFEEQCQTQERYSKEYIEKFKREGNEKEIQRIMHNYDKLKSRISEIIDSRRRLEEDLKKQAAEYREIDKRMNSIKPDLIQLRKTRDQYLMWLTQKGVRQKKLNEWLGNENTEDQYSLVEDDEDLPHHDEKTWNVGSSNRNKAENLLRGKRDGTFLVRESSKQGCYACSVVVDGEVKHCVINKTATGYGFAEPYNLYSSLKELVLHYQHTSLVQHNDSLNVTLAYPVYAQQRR
Procedure: as §1, §2, §3, §4

[11] = target: PI3Kβ (Homo sapiens, UniProt P42338); experiment: PI3Kβ kinase assay (ADP-Glo, luminescence); format: biochemical; settings: final ATP concentration 10 μM; read-out: IC50 of Compound PI3K β
PI3Kβ, sequence (P42338 whole entry): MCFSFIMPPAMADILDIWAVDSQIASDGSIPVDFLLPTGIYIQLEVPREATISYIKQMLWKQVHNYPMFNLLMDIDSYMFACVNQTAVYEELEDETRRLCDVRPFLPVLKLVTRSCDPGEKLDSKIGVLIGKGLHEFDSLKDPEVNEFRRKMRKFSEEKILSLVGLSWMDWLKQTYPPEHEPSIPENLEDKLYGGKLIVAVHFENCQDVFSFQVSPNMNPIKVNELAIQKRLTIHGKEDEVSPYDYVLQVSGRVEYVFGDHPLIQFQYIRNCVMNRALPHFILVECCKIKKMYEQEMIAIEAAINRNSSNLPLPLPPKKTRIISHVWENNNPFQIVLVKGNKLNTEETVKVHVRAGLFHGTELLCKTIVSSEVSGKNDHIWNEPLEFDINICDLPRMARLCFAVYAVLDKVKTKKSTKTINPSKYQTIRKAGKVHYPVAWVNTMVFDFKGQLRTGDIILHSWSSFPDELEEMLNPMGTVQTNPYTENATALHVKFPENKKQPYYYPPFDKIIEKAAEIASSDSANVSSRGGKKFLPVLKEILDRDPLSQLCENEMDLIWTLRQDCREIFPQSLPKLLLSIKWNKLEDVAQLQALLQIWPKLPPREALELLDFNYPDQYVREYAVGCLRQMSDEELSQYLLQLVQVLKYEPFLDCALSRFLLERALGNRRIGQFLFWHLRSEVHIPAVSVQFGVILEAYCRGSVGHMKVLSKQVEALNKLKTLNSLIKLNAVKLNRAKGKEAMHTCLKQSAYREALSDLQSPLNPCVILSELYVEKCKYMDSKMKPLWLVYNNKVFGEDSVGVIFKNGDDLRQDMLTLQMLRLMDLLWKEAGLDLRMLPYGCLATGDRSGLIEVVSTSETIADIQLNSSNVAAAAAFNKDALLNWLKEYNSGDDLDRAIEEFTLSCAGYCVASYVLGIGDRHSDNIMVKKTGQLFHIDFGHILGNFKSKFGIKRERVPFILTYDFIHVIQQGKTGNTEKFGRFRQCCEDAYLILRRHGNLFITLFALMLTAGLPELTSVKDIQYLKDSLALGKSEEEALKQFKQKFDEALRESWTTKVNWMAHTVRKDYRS
PI3Kβ, sequence (P27986 whole entry partner): as the sequence (P27986 whole entry partner) above
Procedure: as §1, §2, §3, §4

[12] = High temperature of 40° C., Day 5
[13] = High temperature of 40° C., Day 30
[14] = High temperature of 60° C., Day 5
[15] = High temperature of 60° C., Day 30

SMILES	Result: crystal form after tabletting [1]	mass gain (DVS) [2]	Total impurity content of the related material ([4]; Day 0)	Total impurity content of the related material ([4]; High humidity of 75%, Day 5)	Total impurity content of the related material ([4]; High humidity of 75%, Day 30)	Total impurity content of the related material ([4]; High humidity of 92.5%, Day 5)	Total impurity content of the related material ([4]; High humidity of 92.5%, Day 30)	Total impurity content of the related material [4, 12]	Total impurity content of the related material [4, 13]	Total impurity content of the related material [4, 14]	Total impurity content of the related material [4, 15]	XRPD pattern after grinding [3]	other results
CC(C)[C@H]1C(=O)N(C2CC2)C(=O)N1c1cn2c(n1)-c1ccc(N3CCC[C@H]3C(N)=O)cc1OCC2 [Crystal Form B-1, (S)-1-(2-((S)-3-cyclopropyl-5-isopropyl-2,4-dioxoimidazolidin-1-yl)-5,6-dihydrobenzo[f]imidazo[1,2-d][1,4]oxazepin-9-yl)pyrrolidine-2-carboxamide]	Form B-1	1.9%	0.24%	0.25%	0.29%	0.23%	0.24%	0.26%	0.34%	0.38%	0.43%	remained consistent with the original patterns	
Cc1nc(-c2cn3c(n2)-c2ccc(-c4cnn(C(C)(C)C(N)=O)c4)cc2OCC3)n(C(C)C)n1 [Taselisib]													selectivity for the α-subunit compared to the β-subunit [7]: 31 fold
CC(C)[C@H]1C(=O)N(C2CC2)C(=O)N1c1cn2c(n1)-c1ccc(N3CCC[C@H]3C(N)=O)cc1OCC2 [Compound 1, (S)-1-(2-((S)-3-cyclopropyl-5-isopropyl-2,4-dioxoimidazolidin-1-yl)-5,6-dihydrobenzo[f]imidazo[1,2-d][1,4]oxazepin-9-yl)pyrrolidine-2-carboxamide]													pIC50 [8]: < 6.22; pIC50 [9]: 7.33; pIC50 [10]: ≥ 8.30; pIC50 [11]: < 6.22

Continued, in another order:

Result: crystal form after tabletting [1]	mass gain (DVS) [2]	Total impurity content of the related material ([4]; Day 0)	Total impurity content of the related material ([4]; High humidity of 75%, Day 5)	Total impurity content of the related material ([4]; High humidity of 75%, Day 30)	Total impurity content of the related material ([4]; High humidity of 92.5%, Day 5)	Total impurity content of the related material ([4]; High humidity of 92.5%, Day 30)	Total impurity content of the related material [4, 12]	Total impurity content of the related material [4, 13]	Total impurity content of the related material [4, 14]	Total impurity content of the related material [4, 15]	SMILES	XRPD pattern after grinding [3]	other results
Form C	0.7%	0.07%	0.07%	0.07%	0.07%	0.07%	0.07%	0.10%	0.08%	0.10%	CC(C)[C@H]1C(=O)N(C2CC2)C(=O)N1c1cn2c(n1)-c1ccc(N3CCC[C@H]3C(N)=O)cc1OCC2 [Crystal Form C, (S)-1-(2-((S)-3-cyclopropyl-5-isopropyl-2,4-dioxoimidazolidin-1-yl)-5,6-dihydrobenzo[f]imidazo[1,2-d][1,4]oxazepin-9-yl)pyrrolidine-2-carboxamide]	remained consistent with the original patterns	change of testing indexes compared with day 0, long-term test ([5]; 25° C. ± 2° C., RH60% ± 5%, 6 months): no significant change; change of testing indexes compared with day 0, accelerated test ([5]; 40° C. ± 2° C., RH75%, 6 months): no significant change; change in characteristics, content, crystal form and isomer compared with day 0 ([5]; uncovered, high temperature (40° C., 60° C.) or high humidity (75%, 92.5%), 30 days): no significant change; AUC [6]: 36600 ng·h/mL; Cmax [6]: 3700 ng/mL
		0.12%	0.39%	0.61%	0.42%	0.61%	0.55%	0.53%	0.70%	0.64%	CC(C)[C@H]1C(=O)N(C2CC2)C(=O)N1c1cn2c(n1)-c1ccc(N3CCC[C@H]3C(N)=O)cc1OCC2 [Crystal Form M, (S)-1-(2-((S)-3-cyclopropyl-5-isopropyl-2,4-dioxoimidazolidin-1-yl)-5,6-dihydrobenzo[f]imidazo[1,2-d][1,4]oxazepin-9-yl)pyrrolidine-2-carboxamide]		
